{"source": "paper PMC7470163", "about": "“Effects of ticagrelor on the pharmacokinetics of rivaroxaban in rats” (Pharmaceutical Biology, 2020)", "key": {"[1]": {"assay": "In vivo pharmacokinetic experiment: oral rivaroxaban in rats with or without ticagrelor pre-treatment (plasma, UPLC-MS/MS)", "parameters": "species or system Sprague-Dawley rats", "settings": "for AUC(0-t) / AUC(0-inf) / Cmax / half-life / MRT inf / MRT last: po; for MRT inf: read-out: MRT (0–∞); for MRT last: read-out: MRT(0–t); for CLint scaled: read-out: CL (text: intrinsic clearance) (converted)", "description": "Chromatographic separation was performed using the Acquity UPLC system (Waters Corp., Milford, MA, USA) and ACQUITY UPLC HSS T3 column (2.1 × 100 mm, 1.8 μm) at 40 °C. The mobile phase comprising acetonitrile (A) and 0.1% formic acid water (B) was set with a flow rate of 0.40 mL/min. The gradient programme was applied as follows: 0–0.5 min, 30% A; 0.5–1 min, 30–95% A; 1–2 min, 95% A; […], 95% A; 2.5–2.6 min, 95–30% A; 2.6–3 min, 30% A. The total time required for analysis was 3 min. The sample manager underwent a strong wash (methanol water, 50/50, V/V) and a weak wash (methanol water, 10/90, V/V) after each injection.\nXEVO TQD triple quadrupole mass spectrometer was equipped with electrospray ionization (ESI), and multiple-reaction monitoring (MRM) mode was selected for quantization. The precursor ion and product ion were m/z 435.93→144.81 for rivaroxaban and m/z 285.1→193.1 for diazepam (internal standard, IS), respectively. The optimal MS parameters were defined as follows: the cone voltages were set at 35 V and 50 V for rivaroxaban and IS; the collision energies were set at 30 V and 25 V for rivaroxaban and IS. Masslynx 4.1 software (Waters Corp., Milford, MA, USA) was used for data acquisition, and the UPLC-MS/MS chromatogram of blank plasma that was spiked with rivaroxaban and IS was shown below (Figure 2).\nTen specific pathogen-free (SPF) grade Sprague–Dawley rats (male, 220 ± 20 g) were provided by Wenzhou Medical University Laboratory Animal Research Centre. All experimental procedures and protocols were reviewed and approved by the Animal Care and Use Committee of Wenzhou Medical University and were in accordance with the Guide for the Care and Use of Laboratory Animals (ID Number: wydw2019-650). Ten rats were randomly divided into two groups: the ticagrelor group (n = 5) and the control group (n = 5). Rats were bred at 25 °C with 60 ± 5% humidity and a 12 h dark/light cycle. Enough tap water and normal chow were provided ad libitum. The rats were placed under the above conditions for one week before initiating the experiment.\nThe ticagrelor group was pre-treated with ticagrelor by oral gavage at a dose of 10 mg/kg/day (dissolved in CMC-Na solution) for two weeks before the administration of rivaroxaban. The control group also received equal amounts of the vehicle (CMC-Na solution). Rivaroxaban was dissolved in dimethyl sulfoxide (DMSO) and was then diluted with polyethylene glycol 200 so that DMSO accounted for 5% of the total volume. Each group of rats was given an oral gavage of rivaroxaban at a dose of 10 mg/kg, and then blood was collected via the rat’s tail vein for analysis at 0.083, 0.25, 0.5, 1, 2, 3, 4, 6, 8, 12 and 24 h. Samples were collected into 1.5 mL centrifuge tubes and were immediately centrifuged at 4000 rpm for 10 min.\nEvery 100 µL of rat plasma was added with 200 µL of acetonitrile in 0.5 μg/mL of IS, followed by vortex mixing for 1 min. After centrifugation at 13000 rpm for 15 min, 5 µL of supernatant was prepared for UPLC-MS/MS system to analyse.\nThe GraphPad (version 8.0; GraphPad Software Inc., San Diego, CA, USA) was applied to calculate IC50 and plot plasma concentration-time curves. The pharmacokinetic parameters using non-compartmental analysis were calculated by DAS (version 3.2.8; Wenzhou Medical University, China). Statistical comparisons within groups were conducted by SPSS (version 25.0; SPSS Inc., Chicago, IL, USA), using Student’s t-test. Values of p < 0.05 were considered statistically significant."}, "[2]": {"parameters": "method as in Abrams and Emerson [2009]", "settings": "phase I trials; ref Abrams and Emerson [2009]; cited from earlier work"}, "[3]": {"settings": "male, Sprague-Dawley, rat, plasma, 10 mg/kg, rivaroxaban 10 mg/kg oral, rats pre-treated with ticagrelor 10 mg/kg/day for 14 days"}, "[4]": {"settings": "male, Sprague-Dawley, rat, plasma, 10 mg/kg, rivaroxaban 10 mg/kg oral, rats, control group (no ticagrelor)"}, "[5]": {"settings": "male, Sprague-Dawley, rat, plasma, 10 mg/kg, rivaroxaban 10 mg/kg oral, rats, without ticagrelor pre-treatment"}, "[6]": {"settings": "male, Sprague-Dawley, rat, plasma, rivaroxaban 10 mg/kg oral, rats, control group (no ticagrelor)"}, "[7]": {"settings": "rats, oral ticagrelor 10 mg/kg/day for 14 days vs control"}, "[8]": {"settings": "rivaroxaban 10 mg/kg oral, rats pre-treated with ticagrelor 10 mg/kg/day for 14 days"}}, "note": "Read-outs that look alike come from different tables or passages of the source.", "data": [{"compound": "O=C(NC[C@H]1CN(c2ccc(N3CCOCC3=O)cc2)C(=O)O1)c1ccc(Cl)s1", "note": "[Rivaroxaban]", "values": [{"measurement": "AUC(0-t)", "setting": "[1]; male, Sprague-Dawley, rat, plasma, 10 mg/kg, rivaroxaban 10 mg/kg oral single dose, rats pre-treated with ticagrelor 10 mg/kg/day oral for 14 days, n=5, mean ± SD", "result": "3480 ± 754", "unit": "ng·h/mL"}, {"measurement": "AUC(0-t)", "setting": "[1]; male, Sprague-Dawley, rat, plasma, 10 mg/kg, rivaroxaban 10 mg/kg oral single dose, rats, control group (vehicle, no ticagrelor), n=5, mean ± SD", "result": "1060 ± 291", "unit": "ng·h/mL"}, {"measurement": "AUC(0-inf)", "setting": "[1]; [3]", "result": "3580 ± 736", "unit": "ng·h/mL"}, {"measurement": "Cmax", "setting": "[1]; [3]", "result": "691 ± 238", "unit": "ng/mL"}, {"measurement": "half-life", "setting": "[1]; [3]", "result": "5.12 ± 1.65", "unit": "h"}, {"measurement": "MRT inf", "setting": "[1]; [3]", "result": "5.97 ± 1.11", "unit": "h"}, {"measurement": "MRT last", "setting": "[1]; [3]", "result": "5.18 ± 0.91", "unit": "h"}, {"measurement": "AUC(0-inf)", "setting": "[1]; [4]", "result": "1070 ± 299", "unit": "ng·h/mL"}, {"measurement": "Cmax", "setting": "[1]; [4]", "result": "221 ± 53.3", "unit": "ng/mL"}, {"measurement": "half-life", "setting": "[1]; [4]", "result": "2.64 ± 0.72", "unit": "h"}, {"measurement": "MRT inf", "setting": "[1]; [4]", "result": "4.41 ± 0.79", "unit": "h"}, {"measurement": "MRT last", "setting": "[1]; [4]", "result": "4.32 ± 0.66", "unit": "h"}, {"measurement": "AUC(0-t)", "setting": "[1]; male, Sprague-Dawley, rat, plasma, 10 mg/kg, rivaroxaban 10 mg/kg oral, rats with ticagrelor pre-treatment 10 mg/kg/day for 14 days", "result": "3480 ± 754", "unit": "ng·h/mL"}, {"measurement": "AUC(0-inf)", "setting": "[1]; [5]", "result": "1070 ± 299", "unit": "ng·h/mL"}, {"measurement": "AUC(0-t)", "setting": "[1]; [5]", "result": "1060 ± 291", "unit": "ng·h/mL"}, {"measurement": "AUC(0-inf)", "setting": "[1]; male, Sprague-Dawley, rat, plasma, rivaroxaban 10 mg/kg oral, rats with ticagrelor pre-treatment 10 mg/kg/day for 14 days", "result": "3580 ± 736", "unit": "ng·h/mL"}, {"measurement": "CLint scaled", "setting": "[1]; male, Sprague-Dawley, rat, plasma, rivaroxaban 10 mg/kg oral, rats pre-treated with ticagrelor 10 mg/kg/day for 14 days", "result": 48.2, "unit": "mL/min/kg"}, {"measurement": "Tmax", "setting": "[1]; [6]", "result": "2 ± 0.71", "unit": "h"}, {"measurement": "CLint scaled", "setting": "[1]; [6]", "result": 166, "unit": "mL/min/kg"}, {"measurement": "increase of AUC value of rivaroxaban", "setting": "[1]; [7]", "result": 3.3, "unit": "fold"}, {"measurement": "increase of Cmax value of rivaroxaban", "setting": "[1]; [7]", "result": 3.1, "unit": "fold"}, {"measurement": "T max", "setting": "[1]; [8]", "result": "2.00 ± 0.71", "unit": "h"}, {"measurement": "Vz", "setting": "[1]; [8]", "result": "21.89 ± 9.00", "unit": "L/kg"}, {"measurement": "Vz", "setting": "[1]; rivaroxaban 10 mg/kg oral, rats, control group (no ticagrelor)", "result": "36.23 ± 5.48", "unit": "L/kg"}, {"measurement": "time to peak plasma concentration (Tmax)", "setting": "[2]", "result": "1.5 to 4", "unit": "h"}]}]}
